Assay results taken from US9181214B2 (RHIZEN PHARMACEUTICALS SA, priority 2011, dated 2015).

Assays:
human GPR119 = molecular target: T1, human GPR119 (Homo sapiens, UniProt Q8TDV5); test: In vitro cyclic AMP assay (Cisbio HTRF) in HEK293 cells transfected with human GPR119; type: cell-based; details: cAMP; for activation at 10 µM: 1 h, % Induction @ 10 μM; for EC50: Emax varies between 65 to 80%
T1 construct: expressed in transfected cells; host or cells: HEK293 (transient transfection, Lipofectamine 2000)
T1 sequence (Q8TDV5 1-335): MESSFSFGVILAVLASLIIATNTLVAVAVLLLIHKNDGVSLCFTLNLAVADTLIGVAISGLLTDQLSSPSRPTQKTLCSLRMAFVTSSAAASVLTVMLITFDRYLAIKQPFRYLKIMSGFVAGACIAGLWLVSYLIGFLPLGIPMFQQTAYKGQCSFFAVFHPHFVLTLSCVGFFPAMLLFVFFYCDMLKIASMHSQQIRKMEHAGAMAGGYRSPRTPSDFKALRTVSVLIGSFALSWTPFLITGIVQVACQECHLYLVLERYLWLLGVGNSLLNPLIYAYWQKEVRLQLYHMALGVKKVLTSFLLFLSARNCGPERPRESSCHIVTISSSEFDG
Summary of the method: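 HEK293 cells transiently transfected with human GPR119 plasmid (or empty vector), replated 24 h later and exposed to compounds for 60 min at room temperature. cAMP measured by HTRF (cAMP-d2/cryptate, 665/620 nm ratio) after 1 h lysis; EC50 from concentration-response curves, also % induction at 10 μM.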

Mouse GPR119 = molecular target: T2, Mouse GPR119 (Mus musculus, UniProt Q7TQP3); test: In vitro mouse GPR 119 cyclic AMP assay in stably transfected HEK293 cells; type: cell-based; details: cAMP, HEK293 cells stably transfected with mouse GPR119
T2 construct: expressed in transfected cells
T2 sequence (Q7TQP3 1-335): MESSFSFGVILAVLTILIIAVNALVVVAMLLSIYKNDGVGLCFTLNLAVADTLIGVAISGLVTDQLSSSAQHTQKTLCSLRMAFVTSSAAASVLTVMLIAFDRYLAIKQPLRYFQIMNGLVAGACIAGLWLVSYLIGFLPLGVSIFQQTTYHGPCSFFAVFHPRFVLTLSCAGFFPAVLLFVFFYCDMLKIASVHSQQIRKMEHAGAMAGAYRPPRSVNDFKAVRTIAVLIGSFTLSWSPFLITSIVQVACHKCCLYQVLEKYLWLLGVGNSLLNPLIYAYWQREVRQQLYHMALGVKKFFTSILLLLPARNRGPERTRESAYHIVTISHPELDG
Experimental: B. In Vitro Mouse GPR 119 Cyclic AMP Assay:
(§1) cAMP measurements were done using a Cisbio dynamic 2 HTRF kit (Cisbio, Bedford, Mass.) according to the manufacturer's protocol. HEK293 Cells were stably transfected with Mouse GPR119 expression plasmid DNA using Lipofectamine 2000 (Invitrogen) and maintained in culture. Cells were harvested, counted and plated at 1000 cells/5 ul in a black 384 welled small volume plate. Cells were treated with desired concentrations of compounds and incubated for 60 min at room temperature. Lysis buffer containing cAMP-d2 and cryptate conjugate were added and incubated for 1 h. HRTF ratio was measured on a microplate reader (BMG Labtech., Germany) at an excitation wavelength of 337 nm and emission wavelengths of 665 and 615 nm with an integration time of 400 μsec. Data were analyzed using Graphpad Prism (Graphpad software; San Diego Calif.) for EC50 determination.

HIT-T15 cells = test: In vitro HIT-T15 cyclic AMP assay; type: cell-based; details: cAMP
Experimental: C. In Vitro HIT-T15 Cyclic AMP Assay:
as §1, with “Briefly, HIT-T15 cells” for “HEK293 Cells were stably transfected with Mouse GPR119 expression plasmid DNA using Lipofectamine 2000 (Invitrogen) and maintained in culture. Cells”, “4000” for “1000”, “ul PBS-BSA solution” for “ul”

C57Bl/6J mice = test: Oral glucose tolerance test (OGTT) in C57Bl/6J mice; type: in vivo; details: single oral dose 1 h before 2.0 g/kg oral glucose, sitagliptin 10 mg/kg, vs vehicle
Experimental: FIG. 1 is a graph of blood glucose over time in C57BI/6J mice according to the oral glucose tolerance test (Biological Assay Procedure E) before and after oral administration of vehicle (control), compound A (Example 64@ 30 mg/kg), or sitagliptin (10 mg/kg @ 10 mg/kg).
FIG. 2 is a graph of blood glucose over time in C57BI/6J mice according to the oral glucose tolerance test (Biological Assay Procedure E) before and after oral administration of vehicle (control), compound […] (Example 42 @ 10 mg/kg), or sitagliptin (10 mg/kg @ 10 mg/kg).
E: Oral Glucose Tolerance Test (OGTT) in C57Bl/6J Mice:
After the quarantine period, 6 hr fasted animals were randomized and divided into various groups depending on their blood glucose levels. Test compounds or standard drug (sitagliptin) was prepared as a suspension in a vehicle consisting of 0.5% methylcellulose and Tween 80 as a suspending agent. The standard drug, Compound A (example-64), Compound B (example-42) or vehicle were administered by oral gavage in a volume of 10 mL/kg. 1 h after the test compounds, standard drug and vehicle administration, blood was sampled from the tail vein of mice at time 0 min (baseline) and at 30, 60, 90 and 120 min after an oral glucose load of 2.0 g/kg of body weight. Food, but not water, was withheld from the cages during the course of experiment. The area under curve (AUC) of experimental animals was compared with that of vehicle-treated control group. The results are shown in FIGS. 1 and 2 and are discussed below.

Structure (SMILES)	activation at 10 µM (human GPR119; Table I) [%]	EC50 (human GPR119; Table I) [nM]	EC50 (Mouse GPR119) [nM]	EC50 (HIT-T15 cells) [nM]	activation at 10 µM (human GPR119; Table II) [%]	EC50 (human GPR119; Table II) [nM]	lowered AUCglucose (C57Bl/6J mice; FIG. 1 study, Compound A 30 mg/kg) [%]	lowered AUCglucose (C57Bl/6J mice; FIG. 2 study, Compound B 10 mg/kg) [%]	melting point [°C]
CC(C)(C)OC(=O)N1CCC(c2nc3cc(-c4ccc(-n5cnnn5)cc4F)ccc3o2)CC1 [EXAMPLE-12, Tert-butyl 4-{5-[2-fluoro-4-(1H-tetrazol-1-yl)phenyl]benzo[d]oxazol-2-yl}piperidine-1-carboxylate]	83	≤ 25	< 25	< 25	–	–	–	–	–
CC(C)OC(=O)N1CCC(c2ccc3oc(-c4ccc(S(C)(=O)=O)cc4F)nc3c2)CC1 [EXAMPLE-64, Isopropyl 4-{2-[2-fluoro-4-(methylsulfonyl)phenyl]benzo[d]oxazol-5-yl}piperidine-1-carboxylate]	–	–	–	–	75	≤ 25	24	–	–
CNC(=O)c1ccc(-c2ccc3oc(C4CCN(C(=O)OC(C)C)CC4)nc3c2)cc1F [EXAMPLE-42, Isopropyl 4-{5-[3-fluoro-4-(methylcarbamoyl)phenyl]benzo[d]oxazol-2-yl}piperidine-1-carboxylate]	78.4	25 to 50	–	–	–	–	–	22	116 to 120
